Test results: ChEMBL document CHEMBL1201862, “PubChem BioAssay data set” (2004)
The source made the active and inactive calls.

Assays:
HEK293 [1] = test: cells; settings: Homo sapiens
Tumor necrosis factor = Tumor necrosis factor (Homo sapiens, UniProt P01375); test: TNFa-triggered NF-kB activation inhibitors, SAR follow-up, cell-based, revised (AID 2337); assay type: functional
[2] = biological target: T1, Nucleotide-binding oligomerization domain-containing protein 1 (Homo sapiens, UniProt Q9Y239); test: NOD1 signaling inhibitors, SAR follow-up, revised (AID 2333); assay type: functional
T1 sequence (Q9Y239 whole entry): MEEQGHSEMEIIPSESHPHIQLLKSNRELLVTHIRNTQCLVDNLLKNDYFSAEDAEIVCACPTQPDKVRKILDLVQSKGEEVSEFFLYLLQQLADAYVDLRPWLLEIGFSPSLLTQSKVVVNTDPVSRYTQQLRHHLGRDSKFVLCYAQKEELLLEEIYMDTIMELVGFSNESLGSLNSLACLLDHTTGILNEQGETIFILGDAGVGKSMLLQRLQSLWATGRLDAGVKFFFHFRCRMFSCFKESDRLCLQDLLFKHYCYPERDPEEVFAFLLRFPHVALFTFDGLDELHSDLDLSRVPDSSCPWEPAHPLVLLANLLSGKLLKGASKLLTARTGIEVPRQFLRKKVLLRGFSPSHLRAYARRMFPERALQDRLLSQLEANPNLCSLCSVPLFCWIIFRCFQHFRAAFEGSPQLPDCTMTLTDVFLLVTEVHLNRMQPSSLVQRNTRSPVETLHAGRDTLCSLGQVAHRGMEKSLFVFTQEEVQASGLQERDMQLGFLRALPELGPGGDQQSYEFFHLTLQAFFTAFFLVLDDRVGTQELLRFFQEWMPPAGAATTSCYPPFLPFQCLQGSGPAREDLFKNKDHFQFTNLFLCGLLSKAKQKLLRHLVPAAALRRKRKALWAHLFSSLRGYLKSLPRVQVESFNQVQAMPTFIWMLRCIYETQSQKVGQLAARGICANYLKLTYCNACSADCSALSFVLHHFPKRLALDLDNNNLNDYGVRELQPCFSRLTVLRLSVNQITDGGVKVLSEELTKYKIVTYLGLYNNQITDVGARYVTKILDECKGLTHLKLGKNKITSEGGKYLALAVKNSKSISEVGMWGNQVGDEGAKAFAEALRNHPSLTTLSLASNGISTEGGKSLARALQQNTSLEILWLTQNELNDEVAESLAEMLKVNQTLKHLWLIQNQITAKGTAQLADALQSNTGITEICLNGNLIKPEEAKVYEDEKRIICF

[3] = biological target: DNA dC->dU-editing enzyme APOBEC-3G (Homo sapiens, UniProt Q9HC16); test: Dose Response confirmation of small molecule APOBEC3G DNA Deaminase Inhibitors via a fluorescence-based single-stranded DNA deaminase assay. [Related pubchem assays (depositor defined):AID493012, AID493028]; assay type: functional
Phosphomannomutase 2 = Phosphomannomutase 2 (Homo sapiens, UniProt O15305); test: Counter screen SAR assay for PMM2 inhibitors via a fluorescence intensity assay. [Related pubchem assays (depositor defined):AID1545, AID1574]
Sequence of Phosphomannomutase 2 (O15305 whole entry): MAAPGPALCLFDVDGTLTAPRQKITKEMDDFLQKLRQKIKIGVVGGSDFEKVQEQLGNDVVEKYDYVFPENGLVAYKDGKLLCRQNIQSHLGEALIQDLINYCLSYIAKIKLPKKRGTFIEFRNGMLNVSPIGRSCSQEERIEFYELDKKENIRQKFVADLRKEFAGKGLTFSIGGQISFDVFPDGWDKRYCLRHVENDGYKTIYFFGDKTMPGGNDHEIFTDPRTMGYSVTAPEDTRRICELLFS

[4] = biological target: Phosphoethanolamine/phosphocholine phosphatase (Homo sapiens, UniProt Q8TCT1); test: SAR assay for compounds that inhibit PHOSPHO1. [Related pubchem assays (depositor defined):AID1545, AID1565, AID1574]
Sequence of Phosphoethanolamine/phosphocholine phosphatase (Q8TCT1 whole entry): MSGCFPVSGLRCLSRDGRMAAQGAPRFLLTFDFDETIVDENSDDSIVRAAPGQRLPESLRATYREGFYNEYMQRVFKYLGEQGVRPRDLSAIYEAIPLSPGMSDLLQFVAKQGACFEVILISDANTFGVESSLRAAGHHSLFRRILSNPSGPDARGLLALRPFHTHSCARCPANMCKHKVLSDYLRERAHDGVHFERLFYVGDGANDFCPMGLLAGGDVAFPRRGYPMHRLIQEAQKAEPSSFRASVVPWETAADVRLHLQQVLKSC

[5] = biological target: Glucose-6-phosphate 1-dehydrogenase (Homo sapiens, UniProt P11413); test: human G6PD enzyme inhibitors, dose response, selectivity assay for P. falciparum G6PD inhibitor project, biochemical, fluorescence (AID 504792); assay type: functional
[6] = biological target: T2, Mannose-6-phosphate isomerase (Homo sapiens, UniProt P34949); test: PMI enzyme inhibitors, confirmation, biochemical, fluorescence intensity (AID 1535)
T2 sequence (P34949 whole entry): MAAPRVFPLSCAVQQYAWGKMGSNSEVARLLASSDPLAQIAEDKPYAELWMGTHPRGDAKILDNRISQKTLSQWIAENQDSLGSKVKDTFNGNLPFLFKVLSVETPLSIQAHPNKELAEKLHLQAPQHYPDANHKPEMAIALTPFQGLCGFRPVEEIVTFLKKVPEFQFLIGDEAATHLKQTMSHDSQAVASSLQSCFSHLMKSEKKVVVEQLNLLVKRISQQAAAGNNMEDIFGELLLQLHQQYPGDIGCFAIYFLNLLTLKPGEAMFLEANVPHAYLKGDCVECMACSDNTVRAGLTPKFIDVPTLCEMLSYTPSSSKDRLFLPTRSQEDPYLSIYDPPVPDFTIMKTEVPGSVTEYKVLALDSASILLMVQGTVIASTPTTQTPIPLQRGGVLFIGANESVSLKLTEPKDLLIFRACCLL

[7] = cytotoxicity toward NIH3T3 fibroblasts, dose response, counter-screen, cell-based, ATP luminescence, mouse fibroblasts (AID 2010); assay type: functional;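 also: cells exposed to compound for about 90 hours before reading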
INS1 = test: beta cell apoptosis inhibitors, cytokine rescue, dose response, luminescence, retest (AID 449756); assay type: functional, cell-based; settings: Rattus norvegicus;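 also: cell death triggered by IL-1 beta plus TNF-alpha plus IFN-gamma mixture; protective hits raise ATP signal compared with cytokine alone wells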
HEK293 [8] = test: NOD2 signaling inhibitors in MDP-stimulated cells, cell-based, uHTS, luminescence (AID 2001); assay type: functional; settings: Homo sapiens
[9] = biological target: G-protein coupled receptor 55 (Homo sapiens, UniProt Q9Y2T6); test: GPR55 antagonists, SAR follow-up, counter-screen for GPR35 antagonist project, imaging, image-based (AID 2397); assay type: functional
HEK293 [10] = test: cells; assay type: functional, cell-based; settings: Homo sapiens
[11] = NIH-3T3 fibroblast cytotoxicity, dose response, cytotoxicity control, cell-based, fluorescence, Alamar Blue, secondary assay (AID 2327); assay type: functional;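 also: NIH-3T3 mouse fibroblasts cultured with fluconazole at 8 µg/mL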
[12] = inhibitors of intracellular T. cruzi replication, confirmation, NIH3T3 host cells, beta-gal luminescence (AID 2044); assay type: functional, cell-based;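 also: intracellular parasites grown in NIH/3T3 mouse fibroblasts as host cells; luminescent beta-galactosidase reporter signal from transgenic T. cruzi replicating inside host cells; inhibitors lower the luminescence signal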
HEK293 [13] = test: cells; assay type: functional, cell-based; settings: Homo sapiens; remark: listed apart in the source
[14] = microbe, parasite or virus in culture; assay type: functional; settings: Mycobacterium tuberculosis
[15] = C. albicans growth with fluconazole, confirmation, fluorescence, retest (AID 2467); assay type: functional, cell-based
HEK293 [16] = test: cells; assay type: functional, cell-based; settings: Homo sapiens; remark: listed apart in the source
[17] = biological target: Nucleotide-binding oligomerization domain-containing protein 2 (Homo sapiens, UniProt Q9HC29); test: NOD2 signaling inhibitors, cell-based, luminescence, uHTS, HEK293 (AID 1566); assay type: functional
HEK293 [18] = test: NOD1 signaling inhibitors, primary screen, cell-based, luminescence, uHTS (AID 1578); assay type: functional; settings: Homo sapiens
[19] = biological target: Lysine-specific demethylase 4C (Homo sapiens, UniProt Q9H3R0); test: GASC-1 (JMJD2C) histone demethylase inhibitors, dose response, biochemical, DELFIA europium, cherry-picked samples (AID 488835); assay type: functional
[20] = biological target: Lysine-specific demethylase 4A (Homo sapiens, UniProt O75164); test: JMJD2A histone demethylase inhibitors, dose response, selectivity assay for GASC-1 inhibitor project, biochemical, DELFIA europium, cherry-picked samples (AID 488840)
[21] = inhibitors of Trypanosoma cruzi host-cell infection, confirmation, beta-gal luminescence, NIH3T3 host cells (AID 2630); assay type: functional, cell-based; settings: Mus musculus
[22] = Luminescence Cell-Based Dose Confirmation HTS to Identify Inhibitors of Platelet Dense Granule Release. [Related pubchem assays: 1663 (Primary HTS), 1678 (Summary of Project)]; assay type: functional
cells = assay type: functional
[23] = biological target: Luciferin 4-monooxygenase (Photinus pyralis, UniProt P08659); test: firefly luciferase enzyme inhibitors, dose response, biochemical, luminescence (AID 1891)
[24] = Luminescence Cell-Based Secondary HTS screen to identify cytotoxic compounds of NIH3T3 cells. [Related pubchem assays: 1885, 1968 ]; assay type: functional
[25] = Luminescence Cell-Based/Microorganism Confirmation at Dose of Inhibitors of Trypanosoma cruzi Infection. [Related pubchem assays: 1885, 1968 ]; assay type: functional
[26] = HepG2 cell cytotoxicity, dose response, cytotoxicity control for non-replicating M. tuberculosis project (AID 489018); assay type: functional; settings: Mycobacterium tuberculosis
[27] = biological target: T3, Voltage-gated N-type calcium channel alpha-1B subunit/Amyloid beta A4 precursor protein-binding family A member 1 (Homo sapiens, UniProt Q00975+Q02410); test: disruptors of Mint-PDZ/N-type channel peptide interaction – biochemical, HTRF, set 2, SAR follow-up (AID 434980); assay type: functional
T3 sequence (Q00975 whole entry): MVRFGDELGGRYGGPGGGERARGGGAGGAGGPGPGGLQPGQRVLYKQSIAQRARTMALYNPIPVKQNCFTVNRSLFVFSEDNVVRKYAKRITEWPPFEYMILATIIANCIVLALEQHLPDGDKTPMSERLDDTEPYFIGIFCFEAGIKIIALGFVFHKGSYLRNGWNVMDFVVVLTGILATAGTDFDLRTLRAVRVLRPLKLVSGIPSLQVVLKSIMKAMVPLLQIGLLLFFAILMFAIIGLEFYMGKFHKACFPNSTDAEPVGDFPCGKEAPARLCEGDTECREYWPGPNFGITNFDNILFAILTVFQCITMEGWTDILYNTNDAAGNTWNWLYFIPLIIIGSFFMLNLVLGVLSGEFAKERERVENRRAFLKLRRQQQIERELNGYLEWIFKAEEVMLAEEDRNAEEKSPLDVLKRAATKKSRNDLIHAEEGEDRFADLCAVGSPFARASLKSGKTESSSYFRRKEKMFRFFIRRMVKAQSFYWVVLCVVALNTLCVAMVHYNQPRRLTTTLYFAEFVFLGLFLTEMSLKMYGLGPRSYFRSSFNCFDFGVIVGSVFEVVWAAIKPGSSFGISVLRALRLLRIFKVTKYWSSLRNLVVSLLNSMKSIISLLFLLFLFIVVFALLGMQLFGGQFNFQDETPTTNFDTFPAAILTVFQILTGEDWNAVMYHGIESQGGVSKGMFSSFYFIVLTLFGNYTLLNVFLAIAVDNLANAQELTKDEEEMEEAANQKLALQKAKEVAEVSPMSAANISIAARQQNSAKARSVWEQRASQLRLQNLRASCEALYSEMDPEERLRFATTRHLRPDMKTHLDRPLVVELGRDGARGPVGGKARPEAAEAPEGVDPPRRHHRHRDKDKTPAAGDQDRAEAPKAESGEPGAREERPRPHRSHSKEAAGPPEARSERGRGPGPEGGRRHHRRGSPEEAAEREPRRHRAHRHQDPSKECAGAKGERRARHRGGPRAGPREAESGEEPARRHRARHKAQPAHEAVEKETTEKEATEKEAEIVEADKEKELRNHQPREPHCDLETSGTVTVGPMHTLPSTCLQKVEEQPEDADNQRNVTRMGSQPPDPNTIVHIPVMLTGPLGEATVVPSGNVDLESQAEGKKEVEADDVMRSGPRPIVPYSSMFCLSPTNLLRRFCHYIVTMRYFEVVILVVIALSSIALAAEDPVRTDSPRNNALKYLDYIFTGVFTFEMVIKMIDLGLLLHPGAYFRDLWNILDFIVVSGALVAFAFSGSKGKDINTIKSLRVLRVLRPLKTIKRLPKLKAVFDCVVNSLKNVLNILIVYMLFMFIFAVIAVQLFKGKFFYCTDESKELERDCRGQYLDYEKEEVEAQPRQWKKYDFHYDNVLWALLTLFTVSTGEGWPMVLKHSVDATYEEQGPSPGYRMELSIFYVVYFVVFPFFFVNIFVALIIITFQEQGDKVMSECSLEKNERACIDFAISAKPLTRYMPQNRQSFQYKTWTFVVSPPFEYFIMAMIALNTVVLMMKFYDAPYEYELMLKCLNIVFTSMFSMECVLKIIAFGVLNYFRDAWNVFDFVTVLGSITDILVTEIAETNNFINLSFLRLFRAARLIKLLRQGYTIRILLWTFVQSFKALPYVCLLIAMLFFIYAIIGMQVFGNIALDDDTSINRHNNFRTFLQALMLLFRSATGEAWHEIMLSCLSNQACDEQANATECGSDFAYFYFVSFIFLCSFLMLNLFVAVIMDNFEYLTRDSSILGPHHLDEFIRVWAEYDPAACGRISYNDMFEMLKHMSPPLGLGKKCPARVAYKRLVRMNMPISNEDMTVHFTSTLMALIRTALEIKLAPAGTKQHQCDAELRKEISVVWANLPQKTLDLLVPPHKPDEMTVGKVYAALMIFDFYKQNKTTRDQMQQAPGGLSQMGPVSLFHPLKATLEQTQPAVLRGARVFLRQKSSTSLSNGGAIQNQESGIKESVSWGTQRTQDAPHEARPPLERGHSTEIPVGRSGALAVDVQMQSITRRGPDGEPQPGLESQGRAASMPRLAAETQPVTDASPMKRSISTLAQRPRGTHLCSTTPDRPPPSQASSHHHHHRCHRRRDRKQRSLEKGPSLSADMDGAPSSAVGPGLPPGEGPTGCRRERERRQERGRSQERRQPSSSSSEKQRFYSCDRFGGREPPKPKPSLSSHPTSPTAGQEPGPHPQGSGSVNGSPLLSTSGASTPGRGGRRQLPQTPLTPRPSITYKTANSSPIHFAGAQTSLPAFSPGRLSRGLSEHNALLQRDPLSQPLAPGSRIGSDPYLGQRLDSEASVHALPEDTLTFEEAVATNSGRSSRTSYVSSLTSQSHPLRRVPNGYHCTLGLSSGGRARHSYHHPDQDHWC
T3 sequence (Q02410 whole entry): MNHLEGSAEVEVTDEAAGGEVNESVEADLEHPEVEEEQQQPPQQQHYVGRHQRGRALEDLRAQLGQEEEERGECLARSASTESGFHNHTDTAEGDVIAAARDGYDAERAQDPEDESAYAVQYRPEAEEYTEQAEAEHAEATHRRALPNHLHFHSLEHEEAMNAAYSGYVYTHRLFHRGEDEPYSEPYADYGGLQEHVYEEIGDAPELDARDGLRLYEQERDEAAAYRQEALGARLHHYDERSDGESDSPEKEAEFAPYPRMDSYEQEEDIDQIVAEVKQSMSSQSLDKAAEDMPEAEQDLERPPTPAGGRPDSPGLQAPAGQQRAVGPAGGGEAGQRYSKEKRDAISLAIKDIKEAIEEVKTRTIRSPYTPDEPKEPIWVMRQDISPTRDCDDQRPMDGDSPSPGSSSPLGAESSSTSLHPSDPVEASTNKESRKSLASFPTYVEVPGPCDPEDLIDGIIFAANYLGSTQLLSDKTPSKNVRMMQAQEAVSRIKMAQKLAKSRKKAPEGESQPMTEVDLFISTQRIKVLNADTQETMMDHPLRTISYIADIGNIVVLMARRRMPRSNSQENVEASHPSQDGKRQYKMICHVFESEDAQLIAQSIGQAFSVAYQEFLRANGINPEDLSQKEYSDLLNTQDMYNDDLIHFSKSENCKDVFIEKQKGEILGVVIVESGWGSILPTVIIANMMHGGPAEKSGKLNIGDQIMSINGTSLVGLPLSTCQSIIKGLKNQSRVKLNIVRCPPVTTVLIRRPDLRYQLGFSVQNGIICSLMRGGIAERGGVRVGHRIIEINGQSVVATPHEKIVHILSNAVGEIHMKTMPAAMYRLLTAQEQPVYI

[28] = biological target: T3, Voltage-gated N-type calcium channel alpha-1B subunit/Amyloid beta A4 precursor protein-binding family A member 1; test: disruptors of Mint-PDZ/N-type channel peptide interaction – biochemical, HTRF, SAR follow-up (AID 2489); assay type: functional
SUMO E1/E2 = SUMO E1/E2 (Homo sapiens, UniProt P63279+Q9UBE0+Q9UBT2); test: SAR analysis of SUMOylation using HTRF in an in-Vitro dose response assay. [Related pubchem assays (depositor defined):AID2006, AID2011, AID2018, AID2069, AID2658]; assay type: functional
Sequence of SUMO E1/E2 (Q9UBE0 whole entry): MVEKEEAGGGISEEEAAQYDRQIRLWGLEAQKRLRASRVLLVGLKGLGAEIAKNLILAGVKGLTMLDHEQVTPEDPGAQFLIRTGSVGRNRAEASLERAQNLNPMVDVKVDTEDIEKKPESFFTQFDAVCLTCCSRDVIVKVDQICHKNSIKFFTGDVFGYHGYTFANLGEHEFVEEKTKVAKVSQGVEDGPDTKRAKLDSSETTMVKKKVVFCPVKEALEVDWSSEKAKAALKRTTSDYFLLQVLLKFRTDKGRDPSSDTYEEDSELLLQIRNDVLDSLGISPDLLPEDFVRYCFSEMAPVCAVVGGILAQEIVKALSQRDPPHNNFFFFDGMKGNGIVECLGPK
Sequence of SUMO E1/E2 (Q9UBT2 whole entry): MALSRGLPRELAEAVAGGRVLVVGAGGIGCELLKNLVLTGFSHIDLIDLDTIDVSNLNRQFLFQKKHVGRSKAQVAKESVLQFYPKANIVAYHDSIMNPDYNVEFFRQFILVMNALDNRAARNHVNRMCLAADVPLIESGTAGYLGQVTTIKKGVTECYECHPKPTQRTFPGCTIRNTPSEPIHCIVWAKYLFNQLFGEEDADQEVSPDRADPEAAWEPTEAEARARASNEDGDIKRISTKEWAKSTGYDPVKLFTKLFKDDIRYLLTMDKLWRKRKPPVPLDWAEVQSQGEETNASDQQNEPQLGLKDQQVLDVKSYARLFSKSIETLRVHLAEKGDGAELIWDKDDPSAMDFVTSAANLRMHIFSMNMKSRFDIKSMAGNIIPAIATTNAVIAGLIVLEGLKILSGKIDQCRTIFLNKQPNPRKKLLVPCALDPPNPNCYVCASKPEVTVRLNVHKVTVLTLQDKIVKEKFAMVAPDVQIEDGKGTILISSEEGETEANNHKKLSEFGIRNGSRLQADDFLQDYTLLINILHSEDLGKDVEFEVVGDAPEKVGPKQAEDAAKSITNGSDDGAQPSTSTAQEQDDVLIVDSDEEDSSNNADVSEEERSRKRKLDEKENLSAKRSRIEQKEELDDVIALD
Sequence of SUMO E1/E2 (P63279 whole entry): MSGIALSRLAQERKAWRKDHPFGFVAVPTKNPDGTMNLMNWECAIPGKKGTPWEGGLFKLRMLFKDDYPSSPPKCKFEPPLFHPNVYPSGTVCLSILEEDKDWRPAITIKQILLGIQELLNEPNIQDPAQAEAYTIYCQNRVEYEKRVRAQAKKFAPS

SMILES: CCC(=O)N1c2ccc(S(=O)(=O)N3CCN(c4ccc(Cl)cc4)CC3)cc2CC1C (stereo not given)
- IC50 (HEK293 [1]): 6.8 µM (active)
- IC50 (Tumor necrosis factor): 0.584 µM (active)
- IC50 [2]: 1.01 µM (active)

SMILES: O=c1c2ccccc2sn1-c1ccc(S(=O)(=O)N2CCCCC2)cc1
- IC50 [3]: 19.4 µM (active)
- IC50 (Phosphomannomutase 2): > 100 µM (inactive)
- IC50 [4]: 38.9 µM (inactive)
- IC50 [5]: > 80 µM (inactive)
- IC50 [6]: > 50 µM (inactive)

SMILES: Cc1ccc2c(c1)c(/C=C/c1cc[n+](C)cc1)c(C)n2C
- EC50 [7]: > 60 µM (not active)
- AC50 (INS1): 3.46 µM (active)
- IC50 (HEK293 [8]): 14.7 µM (inactive)
- IC50 [9]: 0.462 µM (active)
- IC50 (HEK293 [10]): > 20 µM (inactive)
- EC50 [11]: > 160 µM (inactive)
- EC50 [12]: 0.294 µM (active)
- IC50 (HEK293 [13]): 18 µM (active)
- CC50 [14]: > 40 µM (active)
- EC50 [15]: 0.59 µM (active)
- IC50 (HEK293 [16]): > 20 µM (inactive)
- EC50 [17]: 4.42 µM (active)
- EC50 (HEK293 [18]): 17.3 µM (active)

SMILES: O=C1NC(=O)C(=NNC(=O)C2COc3ccccc3O2)C(=O)N1 (stereo not given)
- AC50 [19]: 2.66 µM (active)
- AC50 [20]: 11.7 µM (active)

SMILES: OC(COc1ccc2ccccc2c1Br)Cn1ccnc1 (stereo not given)
- EC50 [7]: > 60 µM (not active)
- EC50 [21]: 2.07 µM (active)
- EC50 [22]: > 112 µM (not active)
- IC50 (cells): 14.3 µM (active)
- EC50 [12]: 0.501 µM (active)
- EC50 [23]: > 112 µM (not active)
- EC50 [24]: > 195 µM (not active)
- EC50 [25]: 2.07 µM (active)
- CC50 [26]: > 20 µM (active)

SMILES: COc1ccc(CNC(=O)C(C)OC(=O)c2cc(-c3ccco3)nc3ccccc23)cc1 (stereo not given)
- IC50 [27]: 8.2 µM (active)
- IC50 [28]: 17.5 µM (active)
- IC50 (SUMO E1/E2): 7.68 µM (active)
